Results taken from patent US12404262B2 (priority 2021, dated 2025).

Conditions: 1.0% DMSO, 24-hour incubation at ambient temperature, maximum theoretical 100 μM; for pH 2 solubility: 0.1N HCl, first value of the cell; for pH 7 solubility: 1×PBS buffer (pH 7.4), second value of the cell

CC(C)(C#Cc1ccc(-c2ccc(Cl)c3c(N(C(=O)C(=O)N[C@@H](CC(=O)O)C(=O)O)S(C)(=O)=O)nn(CC(F)(F)F)c23)c([C@H](Cc2cc(F)cc(F)c2)NC(=O)Cn2nc(C(F)(F)F)c3c2C(F)(F)[C@@H]2C[C@H]32)n1)S(C)(=O)=O [Compound 12, (2-(N-(4-chloro-7-(2-((S)-1-(2-((3bS,4aR)-5,5-difluoro-3-(trifluoromethyl)-3b,4,4a,5-tetrahydro-1H-cyclopropa[3,4]cyclopenta[1,2-c]pyrazol-1-yl)acetamido)-2-(3,5-difluorophenyl)ethyl)-6-(3-methyl-3-(methylsulfonyl)but-1-yn-1-yl)pyridin-3-yl)-1-(2,2,2-trifluoroethyl)-1H-indazol-3-yl)methylsulfonamido)-2-oxoacetyl)-L-aspartic acid]
pH 2 solubility: 10/10 μM | pH 7 solubility: 10/10 μM

CCOC(=O)C(=O)N(c1nn(CC(F)(F)F)c2c(-c3ccc(C#CC(C)(C)S(C)(=O)=O)nc3[C@H](Cc3cc(F)cc(F)c3)NC(=O)Cn3nc(C(F)(F)F)c4c3C(F)(F)[C@@H]3C[C@H]43)ccc(Cl)c12)S(C)(=O)=O [Compound 14, ethyl 2-(N-(4-chloro-7-(2-((S)-1-(2-((3bS,4aR)-5,5-difluoro-3-(trifluoromethyl)-3b,4,4a,5-tetrahydro-1H-cyclopropa[3,4]cyclopenta[1,2-c]pyrazol-1-yl)acetamido)-2-(3,5-difluorophenyl)ethyl)-6-(3-methyl-3-(methylsulfonyl)but-1-yn-1-yl)pyridin-3-yl)-1-(2,2,2-trifluoroethyl)-1H-indazol-3-yl)methylsulfonamido)-2-oxoacetate]
pH 2 solubility: 1/1 μM | pH 7 solubility: 1/1 μM

COC(=O)C(=O)N(c1nn(CC(F)(F)F)c2c(-c3ccc(C#CC(C)(C)S(C)(=O)=O)nc3[C@H](Cc3cc(F)cc(F)c3)NC(=O)Cn3nc(C(F)(F)F)c4c3C(F)(F)[C@@H]3C[C@H]43)ccc(Cl)c12)S(C)(=O)=O [Compound 15, methyl 2-(N-(4-chloro-7-(2-((S)-1-(2-((3bS,4aR)-5,5-difluoro-3-(trifluoromethyl)-3b,4,4a,5-tetrahydro-1H-cyclopropa[3,4]cyclopenta[1,2-c]pyrazol-1-yl)acetamido)-2-(3,5-difluorophenyl)ethyl)-6-(3-methyl-3-(methylsulfonyl)but-1-yn-1-yl)pyridin-3-yl)-1-(2,2,2-trifluoroethyl)-1H-indazol-3-yl)methylsulfonamido)-2-oxoacetate]
pH 2 solubility: 1/1 μM | pH 7 solubility: 1/1 μM

CC(C)(C#Cc1ccc(-c2ccc(Cl)c3c(N(CCO)S(C)(=O)=O)nn(CC(F)(F)F)c23)c([C@H](Cc2cc(F)cc(F)c2)NC(=O)Cn2nc(C(F)(F)F)c3c2C(F)(F)[C@@H]2C[C@H]32)n1)S(C)(=O)=O [Compound 18, N—((S)-1-(3-(4-chloro-3-(N-(2-hydroxyethyl)methylsulfonamido)-1-(2,2,2-trifluoroethyl)-1H-indazol-7-yl)-6-(3-methyl-3-(methylsulfonyl)but-1-yn-1-yl)pyridin-2-yl)-2-(3,5-difluorophenyl)ethyl)-2-((3bS,4aR)-5,5-difluoro-3-(trifluoromethyl)-3b,4,4a,5-tetrahydro-1H-cyclopropa[3,4]cyclopenta[1,2-c]pyrazol-1-yl)acetamide]
pH 2 solubility: 1/1 μM | pH 7 solubility: 1/1 μM

CC(C)(C#Cc1ccc(-c2ccc(Cl)c3c(N(CCOP(=O)(O)O)S(C)(=O)=O)nn(CC(F)(F)F)c23)c([C@H](Cc2cc(F)cc(F)c2)NC(=O)Cn2nc(C(F)(F)F)c3c2C(F)(F)[C@@H]2C[C@H]32)n1)S(C)(=O)=O [Compound 19, 2-(N-(4-chloro-7-(2-((S)-1-(2-((3bS,4aR)-5,5-difluoro-3-(trifluoromethyl)-3b,4,4a,5-tetrahydro-1H-cyclopropa[3,4]cyclopenta[1,2-c]pyrazol-1-yl)acetamido)-2-(3,5-difluorophenyl)ethyl)-6-(3-methyl-3-(methylsulfonyl)but-1-yn-1-yl)pyridin-3-yl)-1-(2,2,2-trifluoroethyl)-1H-indazol-3-yl)methylsulfonamido)ethyl dihydrogen phosphate]
pH 2 solubility: 1 μM | pH 7 solubility: 100 μM

CC(C)(C#Cc1ccc(-c2ccc(Cl)c3c(N(COC(=O)CCP(=O)(O)O)S(C)(=O)=O)nn(CC(F)(F)F)c23)c([C@H](Cc2cc(F)cc(F)c2)NC(=O)Cn2nc(C(F)(F)F)c3c2C(F)(F)[C@@H]2C[C@H]32)n1)S(C)(=O)=O [Compound 21, (3-((N-(4-chloro-7-(2-((S)-1-(2-((3bS,4aR)-5,5-difluoro-3-(trifluoromethyl)-3b,4,4a,5-tetrahydro-1H-cyclopropa[3,4]cyclopenta[1,2-c]pyrazol-1-yl)acetamido)-2-(3,5-difluorophenyl)ethyl)-6-(3-methyl-3-(methylsulfonyl)but-1-yn-1-yl)pyridin-3-yl)-1-(2,2,2-trifluoroethyl)-1H-indazol-3-yl)methylsulfonamido)methoxy)-3-oxopropyl)phosphonic acid]
pH 2 solubility: 86 μM | pH 7 solubility: 1 μM

C[C@@H](C(=O)OCN(c1nn(CC(F)(F)F)c2c(-c3ccc(C#CC(C)(C)S(C)(=O)=O)nc3[C@H](Cc3cc(F)cc(F)c3)NC(=O)Cn3nc(C(F)(F)F)c4c3C(F)(F)[C@@H]3C[C@H]43)ccc(Cl)c12)S(C)(=O)=O)N(C)C [Compound 22, (N-(4-chloro-7-(2-((S)-1-(2-((3bS,4aR)-5,5-difluoro-3-(trifluoromethyl)-3b,4,4a,5-tetrahydro-1H-cyclopropa[3,4]cyclopenta[1,2-c]pyrazol-1-yl)acetamido)-2-(3,5-difluorophenyl)ethyl)-6-(3-methyl-3-(methylsulfonyl)but-1-yn-1-yl)pyridin-3-yl)-1-(2,2,2-trifluoroethyl)-1H-indazol-3-yl)methylsulfonamido)methyl dimethyl-L-alaninate]
pH 2 solubility: 45 μM | pH 7 solubility: 3 μM

CC(C)(C#Cc1ccc(-c2ccc(Cl)c3c(N(COP(=O)(O)O)S(C)(=O)=O)nn(CC(F)(F)F)c23)c([C@H](Cc2cc(F)cc(F)c2)NC(=O)Cn2nc(C(F)(F)F)c3c2C(F)(F)[C@@H]2C[C@H]32)n1)S(C)(=O)=O [Compound 23, (N-(4-chloro-7-(2-((S)-1-(2-((3bS,4aR)-5,5-difluoro-3-(trifluoromethyl)-3b,4,4a,5-tetrahydro-1H-cyclopropa[3,4]cyclopenta[1,2-c]pyrazol-1-yl)acetamido)-2-(3,5-difluorophenyl)ethyl)-6-(3-methyl-3-(methylsulfonyl)but-1-yn-1-yl)pyridin-3-yl)-1-(2,2,2-trifluoroethyl)-1H-indazol-3-yl)methylsulfonamido)methyl dihydrogen phosphate]
pH 2 solubility: 6 μM | pH 7 solubility: 100 μM

CC(C)(CO)C(=O)OCN(c1nn(CC(F)(F)F)c2c(-c3ccc(C#CC(C)(C)S(C)(=O)=O)nc3[C@H](Cc3cc(F)cc(F)c3)NC(=O)Cn3nc(C(F)(F)F)c4c3C(F)(F)[C@@H]3C[C@H]43)ccc(Cl)c12)S(C)(=O)=O [Compound 24, (N-(4-chloro-7-(2-((S)-1-(2-((3bS,4aR)-5,5-difluoro-3-(trifluoromethyl)-3b,4,4a,5-tetrahydro-1H-cyclopropa[3,4]cyclopenta[1,2-c]pyrazol-1-yl)acetamido)-2-(3,5-difluorophenyl)ethyl)-6-(3-methyl-3-(methylsulfonyl)but-1-yn-1-yl)pyridin-3-yl)-1-(2,2,2-trifluoroethyl)-1H-indazol-3-yl)methylsulfonamido)methyl 3-hydroxy-2,2-dimethylpropanoate]
pH 2 solubility: 1/1 μM | pH 7 solubility: 1/1 μM

CC(C)(COP(=O)(O)O)C(=O)OCN(c1nn(CC(F)(F)F)c2c(-c3ccc(C#CC(C)(C)S(C)(=O)=O)nc3[C@H](Cc3cc(F)cc(F)c3)NC(=O)Cn3nc(C(F)(F)F)c4c3C(F)(F)[C@@H]3C[C@H]43)ccc(Cl)c12)S(C)(=O)=O [Compound 25, (N-(4-chloro-7-(2-((S)-1-(2-((3bS,4aR)-5,5-difluoro-3-(trifluoromethyl)-3b,4,4a,5-tetrahydro-1H-cyclopropa[3,4]cyclopenta[1,2-c]pyrazol-1-yl)acetamido)-2-(3,5-difluorophenyl)ethyl)-6-(3-methyl-3-(methylsulfonyl)but-1-yn-1-yl)pyridin-3-yl)-1-(2,2,2-trifluoroethyl)-1H-indazol-3-yl)methylsulfonamido)methyl 2,2-dimethyl-3-(phosphonooxy)propanoate]
pH 2 solubility: 1 μM | pH 7 solubility: 73 μM

C[C@H](N)C(=O)OCN(c1nn(CC(F)(F)F)c2c(-c3ccc(C#CC(C)(C)S(C)(=O)=O)nc3[C@H](Cc3cc(F)cc(F)c3)NC(=O)Cn3nc(C(F)(F)F)c4c3C(F)(F)[C@@H]3C[C@H]43)ccc(Cl)c12)S(C)(=O)=O [Compound 27, (N-(4-chloro-7-(2-((S)-1-(2-((3bS,4aR)-5,5-difluoro-3-(trifluoromethyl)-3b,4,4a,5-tetrahydro-1H-cyclopropa[3,4]cyclopenta[1,2-c]pyrazol-1-yl)acetamido)-2-(3,5-difluorophenyl)ethyl)-6-(3-methyl-3-(methylsulfonyl)but-1-yn-1-yl)pyridin-3-yl)-1-(2,2,2-trifluoroethyl)-1H-indazol-3-yl)methylsulfonamido)methyl L-alaninate]
pH 2 solubility: 20 μM | pH 7 solubility: 2 μM

CC(C)[C@H](N)C(=O)OCN(c1nn(CC(F)(F)F)c2c(-c3ccc(C#CC(C)(C)S(C)(=O)=O)nc3[C@H](Cc3cc(F)cc(F)c3)NC(=O)Cn3nc(C(F)(F)F)c4c3C(F)(F)[C@@H]3C[C@H]43)ccc(Cl)c12)S(C)(=O)=O [Compound 28, (N-(4-chloro-7-(2-((S)-1-(2-((3bS,4aR)-5,5-difluoro-3-(trifluoromethyl)-3b,4,4a,5-tetrahydro-1H-cyclopropa[3,4]cyclopenta[1,2-c]pyrazol-1-yl)acetamido)-2-(3,5-difluorophenyl)ethyl)-6-(3-methyl-3-(methylsulfonyl)but-1-yn-1-yl)pyridin-3-yl)-1-(2,2,2-trifluoroethyl)-1H-indazol-3-yl)methylsulfonamido)methyl L-valinate]
pH 2 solubility: 29 μM | pH 7 solubility: 1 μM
